Experimental data: US10584105B2, “Immunoproteasome inhibitor analogs” (The Regents of the University of California, priority 2016, dated 2020)

Key:
[1] = system: SK—N—SH neuroblastoma cells; assay: Cell viability assay (MTS), SK—N—SH neuroblastoma cells; type: cell-based, human; conditions: for effect on viability of SK—N—SH cells: highest concentration tested (1 μM), 24 hours exposure
Procedure: (§1) (A) MYCN2, (B) SK—N—Be(2)c, and (C) SK—N—SH neuroblastoma cells were treated with 1 (NAM-105), 5 (NAM-93), or 6 (NAM-95) for 24 hours at three different concentrations (0.01, 0.1, and 1 μM). Bortezomib (BTZ) was included as a control. Cell viability was measured using the MTS reagent as described in the Methods section. Data shown are representative of two independent experiments, each performed in triplicate wells (n=6).
(§2) To determine the effect of the thiasyrbactins proteasome inhibitors on the viability of cancer cells, three different human neuroblastoma (NB) cell lines were used. BTZ was included as a control. SK—N—Be2c, SK—N—SH cells (ATCC, Manassas, Va.) and MYCN2 cells were plated overnight in RPMI media containing 10% heat-inactivated fetal bovine serum (FBS) (Invitrogen, Carlsbad, Calif., USA), supplemented with penicillin (100 U/ml) and streptomycin (100 μg/ml). Cells were cultured at 37° C. in a humidified atmosphere containing 5% CO2 and treated with 0.01, 0.1 and 1 μM proteasome inhibitor for 24 hours. Cell viability was determined using the Cell Titer 96 AQueous One Cell Proliferation Assay (Promega) reagent MTS by measuring absorbance at 490 nm using a Multi-Mode Synergy plate reader as Ibarra-Rivera et al. Assays were done in duplicate with triplicate wells of treatment per experiment (n=6). Data were expressed as the average cell viability relative to untreated control cells using Microsoft Excel™.

[2] = system: MYCN2 neuroblastoma cells; assay: Cell viability assay (MTS), MYCN2 neuroblastoma cells; type: cell-based, human; conditions: for effect on viability of MYCN2 cells: highest concentration tested (1 μM), 24 hours exposure
Procedure: as §1, §2

[3] = system: ARD multiple myeloma (MM) cells; assay: Cell viability (MTS), ARD multiple myeloma cells; type: cell-based; conditions: Homo sapiens, 24 hours, MTS assay, N=3, read-out: IC-50 cell viability ARD cells
Procedure: (§3) N=3. Cells were incubated for 24 hours in the presence of 1 (NAM-105), 5 (NAM-93), 6 (NAM-95) or DMSO (control) and cell viability measured using the MTS assay. IC-50s for ARD cells are 4.085±0.865 μM (5, NAM-93), N/A (6, NAM-95), and 1.673±0.337 μM (1, NAM-105). IC-50 for U266 cells are 3.308±0.916 μM (5, NAM-93), N/A (6, NAM-95), and 1.474±0.577 μM (1, NAM-105). N/A; not applicable (50% inhibition not reached at tested concentrations).

[4] = molecular target: T1, 20S constitutive proteasome from human erythrocytes, CT-L (β5) activity (Homo sapiens, UniProt P20618+P28074); assay: In vitro proteasome activity assay, constitutive proteasome, CT-L (β5); type: biochemical; conditions: 1 μM
T1 construct: purchased Boston Biochem; host or cells: human erythrocytes (native, purified)
Procedure: (§4) To determine the anti-proteasome activity of the thiasyrbactins in the in vitro environment, three catalytic activities (β1, β2, β5) of the proteasome were measured as described in Ibarra-Rivera et al., Tetrahedron 67:9950-6 (2011)). […] Purified 20S constitutive proteasome from human erythrocytes or immunoproteasome from human peripheral blood mononuclear cells (PBMCs) (Boston Biochem, Cambridge, Mass.) and luminogenic substrates Z-LRR-Glo, Z-nLPnLD-Glo, and Suc-LLVY-Glo (Promega, Fitchburg, Wis.) specific for the β1, β2, and β5 (also referred to as T-L, C-L, and CT-L) catalytic subunit activities, respectively, were used. […] Equal volume of the appropriate luminogenic substrate was added to each reaction and luminescence was measured 10 minutes later using a Multi-Mode Synergy (Biotek, Inc., Winooski, Vt.) plate reader. […] The Ki-50 values for each catalytic activity were determined for each of the inhibitors using Graphpad Prism 5 software (La Jolla, Calif.) and averaged using Microsoft Excel (Redmond, Wash.).
(§5) The thiasyrbactins were evaluated for their ability to inhibit each of the catalytic subunits of the constitutive and immunoproteasomes as well as for cytotoxic activity against neuroblastoma cancer cells. […]

[5] = system: U266 multiple myeloma (MM) cells; assay: Cell viability (MTS), U266 multiple myeloma cells; type: cell-based; conditions: Homo sapiens, U-266; 24 hours, MTS assay, N=3; read-out: IC-50 cell viability U266 cells
Procedure: as §3

[6] = molecular target: T2, immunoproteasome from human peripheral blood mononuclear cells (PBMCs), C-L (β1) activity (Homo sapiens, UniProt P28065); assay: In vitro proteasome activity assay, immunoproteasome, C-L (β1); type: biochemical
T2 construct: purchased Boston Biochem; host or cells: human peripheral blood mononuclear cells (native, purified)
Procedure: as §4, §5

[7] = molecular target: T3, immunoproteasome from human peripheral blood mononuclear cells (PBMCs), CT-L (β5) activity (Homo sapiens, UniProt P20618+P28062); assay: In vitro proteasome activity assay, immunoproteasome, CT-L (β5); type: biochemical; conditions: for effect on CT-L activity of the immunoproteasome: at ≤10 μM; for effect on CT-L (chymotrypsin-like) activity of the immunoproteasome (FIG. 5): 1.0 μM, 2 hours
T3 construct: purchased Boston Biochem; host or cells: human peripheral blood mononuclear cells (native, purified)
Procedure: To determine the anti-proteasome activity of the thiasyrbactins in the in vitro environment, three catalytic activities (β1, β2, β5) of the proteasome were measured as described in Ibarra-Rivera et al., Tetrahedron 67:9950-6 (2011)). […] Purified 20S constitutive proteasome from human erythrocytes or immunoproteasome from human peripheral blood mononuclear cells (PBMCs) (Boston Biochem, Cambridge, Mass.) and luminogenic substrates Z-LRR-Glo, Z-nLPnLD-Glo, and Suc-LLVY-Glo (Promega, Fitchburg, Wis.) specific for the β1, β2, and β5 (also referred to as T-L, C-L, and CT-L) catalytic subunit activities, respectively, were used. Briefly, 2.2 ng/μL of constitutive proteasome and immunoproteosome were incubated with increasing concentration of proteasome inhibitor (0 to 10 μM) in 10 mM HEPES, pH 7.3, for two hours at 37° C. Equal volume of the appropriate luminogenic substrate was added to each reaction and luminescence was measured 10 minutes later using a Multi-Mode Synergy (Biotek, Inc., Winooski, Vt.) plate reader. Assays were done in triplicate (n=3). The Ki-50 values for each catalytic activity were determined for each of the inhibitors using Graphpad Prism 5 software (La Jolla, Calif.) and averaged using Microsoft Excel (Redmond, Wash.).
The thiasyrbactins were evaluated for their ability to inhibit each of the catalytic subunits of the constitutive and immunoproteasomes as well as for cytotoxic activity against neuroblastoma cancer cells. To test the inhibitory activity of 1 (NAM-105), 5 (NAM-93), and 6 (NAM-95), an in vitro assay was performed to test the effect of the thiasyrbactins on the three sub-catalytic activities (i.e., the CT-L, C-L, and T-L activities) of the constitutive proteasome and the immunoproteasome (Table 5).

[8] = system: SK—N—Be(2)c neuroblastoma cells; assay: Cell viability assay (MTS), SK—N—Be(2)c neuroblastoma cells; type: cell-based, human; conditions: highest concentration tested (1 μM), 24 hours exposure
Procedure: as §1
as §2, with “Cells were cultured at 37° C. in a humidified atmosphere containing 5% CO2 and treated with 0.01, 0.1 and 1 μM proteasome inhibitor for 24 hours.” left out

[9] = molecular target: T4, immunoproteasome from human peripheral blood mononuclear cells (PBMCs), T-L (β2) activity (Homo sapiens, UniProt P40306+P49720); assay: In vitro proteasome activity assay, immunoproteasome, T-L (β2); type: biochemical; conditions: 1 μM
T4 construct: purchased Boston Biochem; host or cells: human peripheral blood mononuclear cells (native, purified)
Procedure: as §4, §5

Row | Compound | IC50 [3] | IC50 [5] | effect on C-L activity of the immunoproteasome [6] | effect on CT-L activity of the immunoproteasome [7] | effect on viability of SK—N—Be(2)c cells [8] | effect on viability of SK—N—SH cells [1] | effect on viability of MYCN2 cells [2] | inhibition vs. the trypsin-like activity of the immunoproteasome (screen, FIG. 5) [9] | effect on CT-L (chymotrypsin-like) activity of the immunoproteasome (FIG. 5) [7] | also measured
1 | CC(C)C[C@H](NC(=O)[C@H](Cc1ccccc1)NC(=O)c1cnccn1)B(O)O [BTZ, bortezomib, reference compound] | – | – | – | – | – | – | – | – | – | cytotoxic effects in SK—N—SH cells ([1]; 0.1-1 μM, 24 hours): strong cytotoxic effects; cytotoxic effects in MYCN2 cells ([2]; 0.1-1 μM, 24 hours): strong cytotoxic effects
2 | CCCCCCCCCCCCNC(=O)N[C@H](C(=O)N[C@H]1CSCCNC(=O)/C=C/[C@H](C)NC1=O)C(C)C [Compound 1, (S)-2-(3-Dodecylureido)-3-methyl-N-((8S,11R,E)-8-methyl-5,10-dioxo-1-thia-4,9-diazacyclododec-6-en-11-yl)butanamide] | 1.67 ± 0.337 µM | 1.47 ± 0.577 µM | no effect | no effect | – | – | – | – | – | activity vs. the chymotrypsin-like activity of the constitutive proteasome (screen, FIG. 5) [4]: greatest activity; viability of SK—N—SH cells, % of control (DMSO) ([1]; 24 hours, of control (DMSO)): 30-50%; viability of MYCN2 cells, % of control (DMSO) ([2]; 24 hours, of control (DMSO)): 30-50%
3 | CCCCCCCCCCCCNC(=O)N[C@H](C(=O)N[C@H]1C[S+]([O-])CCNC(=O)/C=C/[C@H](C)NC1=O)C(C)C (stereo partly drawn) [Compound 2, (2S)-2-(3-Dodecylureido)-3-methyl-N-((8S,11R,E)-8-methyl-1-oxido-5,10-dioxo-1-thia-4,9-diazacyclododec-6-en-11-yl)butanamide] | – | – | – | – | minimal effects | minimal effects | minimal effects | – | – | –
4 | CC(C)Cc1ccc([C@H](C)C(=O)N[C@H](C(=O)N[C@H]2CSCCNC(=O)/C=C/[C@H](C)NC2=O)C(C)C)cc1 [Compound 5, (S)-2-((S)-2-(4-Isobutylphenyl)propanamido)-3-methyl-N-((8S,11R,E)-8-methyl-5,10-dioxo-1-thia-4,9-diazacyclododec-6-en-11-yl)butanamide] | 4.08 ± 0.865 µM | 3.31 ± 0.916 µM | no effect | no effect | minimal effects | minimal effects | minimal effects | good inhibition | stimulate | –
5 | CC(C)[C@H](NC(=O)c1cnccn1)C(=O)N[C@H]1CSCCNC(=O)/C=C/[C@H](C)NC1=O [Compound 6, N—((S)-3-Methyl-1-(((8S,11R,E)-8-methyl-5,10-dioxo-1-thia-4,9-diazacyclododec-6-en-11-yl)amino)-1-oxobutan-2-yl)pyrazine-2-carboxamide] | – | – | – | – | – | – | – | good inhibition | stimulate | –
